Experimental data published in PubChem BioAssay AID1259407 (Chemical Carcinogenesis Research Information System (CCRIS), 2018).
Activity calls are given as the source filed them. How the calls were made is not given here.

Test system: CCRIS mutagenicity, Ames/micronucleus/aberration tests
Assay: CCRIS mutagenicity studies
Conditions: Test System: AMES SALMONELLA TYPHIMURIUM, Method: STANDARD PLATE

## CCCOc1cc(N=Nc2ccc(N(CC)CC)cc2)ccc1N=Nc1c(S(=O)(=O)O)cc2ccc(N)cc2c1O
Strain/Indicator: TA98, Metabolic Activation: RAT, LIVER, S-9, AROCLOR 1254
  mutagenic call: active; positive
Strain/Indicator: TA100, Metabolic Activation: NONE
  mutagenic call: inactive; negative
Strain/Indicator: TA100, Metabolic Activation: RAT, LIVER, S-9, AROCLOR 1254
  mutagenic call: inactive; negative
Strain/Indicator: TA1538, Metabolic Activation: NONE
  mutagenic call: inactive; negative
Strain/Indicator: TA1538, Metabolic Activation: RAT, LIVER, S-9, AROCLOR 1254
  mutagenic call: active; positive
